Measurements published in patent US20250129334A1, “LINEAGE SPECIFICATION DURING STEM CELL TRANSITION” (Amniotics AB, priority 2021, published 2025).
“Also recorded” adds a separate entry of the source. Read-outs that look alike come from different tables or passages of the source.

Key:
iPSC-CD34+ = assay: NK cell cytotoxic degranulation (CD107) with or without K562 co-culture; format: cell-based, human; conditions: for degranulated NK cells (CD3-CD56+CD16+CD107+ cells) / increase in degranulated NK cells vs untreated control / basal degranulation: absence of K562; for degranulated NK cells (CD3-CD56+CD16+CD107+ cells) / increase in degranulated NK cells vs untreated control: DCA 10 mM, CP 2.5 μM, cholesterol 0.5x; for basal degranulation: vs ctrl; for level of degranulated NK cells when exposed to K562 cells: co-culture with K562
Excerpt: NK cell anti-tumour activity can occur via cytotoxic degranulation. CD107 is a marker that is present in the cytotoxic vesicles of NK cells, and so is not expressed on the cell surface of inactivated NK cells. However, upon NK cell activation and degranulation, the CD107 target becomes detectable on the cell surface. Therefore, the level of CD107 detected on NK cells correlates with cytotoxic degranulation. In this assay, several exemplary metabolic regulators were used to assess cytotoxic degranulation in a co-culture assay with K562 cells (an exemplary cancer cell model). As a negative control, iPSC-CD34^+ untreated with a metabolic regulator were used, in which a basal level of 3.27% of degranulated NK cells (CD3^−CD56^+CD16^+CD107^+ cells) were observed (FIG. 16A, top panel).

HE cells = assay: HE subculture with metabolic regulators, flow cytometry of hematopoietic output; format: cell-based, human
Excerpt: The RB9-CB1 human iPSC line (Woods, N.-B. et al. Brief report: efficient generation of hematopoietic precursors and progenitors from human pluripotent stem cell lines. Stem Cells 29, 1158-1164 (2011)) was co-cultured with mouse embryonic fibroblasts (MEFs, Millipore), passaged every six days and processed to form embryoid bodies (EBs) as described previously (Guibentif, C. et al. Single-Cell Analysis Identifies Distinct Stages of Human Endothelial to-Hematopoietic Transition. Cell Reports 19, 10-19 (2017)). The differentiation protocol used in this study was previously described (Ditadi, A. & Sturgeon, C. M. Directed differentiation of definitive hemogenic endothelium and hematopoietic progenitors from human pluripotent stem cells. Methods 101, 65-72 (2016)), however, small modifications were made to induce both primitive and definitive hematopoiesis, as indicated below and in FIG. 6, a. Newly-formed EBs were first kept in SFD medium supplemented with 1 ng/ml Activin A (on days 0-2) and 3 μM CHIR99021 (on day 2 only). At day 3, media was switched to “Day 3-SP34” medium supplemented with 1 ng/ml Activin A (on day 3 only) and 3 μM CHIR99021 (on day 3 only) until day 6. On day 6, media was replaced by “Day 6-SP34” medium, until day 8. In some experiments where indicated, to obtain a higher yield of HSC-like cells, EBs were kept until day 10: in this case, EBs were plated onto Matrigel (8 μg/cm2, Corning)-coated dishes on day 8 and kept until day 10. Media was changed every day, except on days 5 and 7. On day 8 or 10 (as indicated), EBs were singularized with 5-6 rounds of 5-minute incubations with TryPLE Express (Thermo Fisher Scientific). CD34^+ cells were selected using the human CD34 MicroBead kit (Miltenyi Biotec) and stained with CD34-FITC, CD73-PE, VECad-PerCPCy5.5, CD38-PC7, CD184-APC, CD45-AF700, CD43-APCH7, GPA-eF450, CD90-BV605 and the viability marker 7AAD in order to sort HE (CD34^+CD43^−CXCR4^−CD73^−CD90^+VECad^+), EHT (CD34^+CD43^intCXCR4^−CD73^−CD90^+VECad^+) and HSC-like (CD34^+CD43^+CD90^+CD38^−) cells, according to previously described markers (Guibentif, C. et al. Single-Cell Analysis Identifies Distinct Stages of Human Endothelial to-Hematopoietic Transition. Cell Reports 19, 10-19 (2017); Ditadi, A. et al. Human definitive haemogenic endothelium and arterial vascular endothelium represent distinct lineages. Nat Cell Biol 17, 580-591 (2015); and Choi, K.-D. et al. Identification of the Hemogenic Endothelial Progenitor and Its Direct Precursor in Human Pluripotent Stem Cell Differentiation Cultures. Cell Reports 2, 553-567 (2012)).
Sorted HE (40,000), EHT (30,000) and HSC-like (5-20,000) cells were plated onto Matrigel (16 μg/cm2, Corning)-coated 96-well flat bottom plates in HE medium with 1% penicillin-streptomycin and kept in a humidified incubator at 37° C., 5% C02, 4% 02 overnight. The following day (day 0), wells were washed twice with PBS and fresh HE medium was added, together with 2-DG (1 mM), UK5099 (10 μM), DCA (3 mM or 10 mM), TSA (60 nM), TCP (300 nM), ACSS2i (5 μM), C646 (10 μM), CP-640186 (5 μM) or Atorvastatin (0.5 μM), where indicated. Media was changed and drugs were added every 2 days and cells were kept in a humidified incubator at 37° C., 5% CO2, 20% O2 for 6-7 days. Pictures were taken using an Olympus IX70 microscope equipped with a CellSens DP72 camera and CellSens Standard 1.6 software (Olympus). For single cell subcultures, single HE cells were directly sorted with a BD FACSAriaIII onto OP9-DL1 stroma in flat-bottom 96-well plates with 120 μl OP9 medium (OptiMEM medium with Glutamax (Invitrogen) with 10% FCS, 1% penicillin-streptomycin solution (Thermo Fisher Scientific) and 1% 2-mercaptoethanol (Invitrogen)) with SCF, IL-6, IL-11, IGF1 and EPO, and with or without 10 μM UK, or 3 mM or 10 mM DCA. The cells were kept in a humidified incubator at 37° C., 5% CO2, 4% O2 and media was replaced every 4 days. […]

[1] = test system: HE, EHT and HSC-like cells; conditions: 100 μM FCCP; all cell types
Description: On days 3 and 6 of subculture, cells were collected after a 2-minute incubation at 37° C. with StemPro Accutase Cell Dissociation Reagent and stained with CD34-FITC, CD14-PE, CD33-PC7, CD11b-APC, CD45-AF700, CD43-APCH7, GPA-eF450, CD90-BV605 and the viability marker 7AAD and fluorescence was measured on a BD LSRII. To measure mitochondrial activity, cells were incubated with Tetramethylrhodamine ethyl ester (TMRE, 20 nM) for 30 minutes at 37° C. Negative controls were incubated with 100 μM FCCP for 30 minutes at 37° C., prior to TMRE staining. […] III and MFI levels—MFI FMO were calculated. […] III. To measure proliferation, cells were processed with the CellTrace Violet (CTV) kit according to manufacturer's instructions (10-minute incubation) and fluorescence was measured on a BD LSRFortessa. To measure EdU incorporation, HE cells were assessed on day 1 or 2 of subculture after 24 h EdU pulses, using Click-iT EdU Flow Cytometry Cell Proliferation Assay (Thermo Fisher Scientific, C10424), according to manufacturer's instructions. Flow cytometry outputs were analyzed on FlowJo Software, with initial gatings on SSC-A/FSC-A, FSC-H/FSC-A, SSC-H/SSC-A and 7-AAD to exclude doublets and dead cells in all experiments.

EHT cells = assay: EHT cell subculture with metabolic regulators, flow cytometry; format: cell-based, human; conditions: EHT cells; day 3; 2-DG 1 mM
Excerpt: The RB9-CB1 human iPSC line (Woods, N.-B. et al. Brief report: efficient generation of hematopoietic precursors and progenitors from human pluripotent stem cell lines. Stem Cells 29, 1158-1164 (2011)) was co-cultured with mouse embryonic fibroblasts (MEFs, Millipore), passaged every six days and processed to form embryoid bodies (EBs) as described previously (Guibentif, C. et al. Single-Cell Analysis Identifies Distinct Stages of Human Endothelial to-Hematopoietic Transition. Cell Reports 19, 10-19 (2017)). The differentiation protocol used in this study was previously described (Ditadi, A. & Sturgeon, C. M. Directed differentiation of definitive hemogenic endothelium and hematopoietic progenitors from human pluripotent stem cells. Methods 101, 65-72 (2016)), however, small modifications were made to induce both primitive and definitive hematopoiesis, as indicated below and in FIG. 6, a. Newly-formed EBs were first kept in SFD medium supplemented with 1 ng/ml Activin A (on days 0-2) and 3 μM CHIR99021 (on day 2 only). At day 3, media was switched to “Day 3-SP34” medium supplemented with 1 ng/ml Activin A (on day 3 only) and 3 μM CHIR99021 (on day 3 only) until day 6. On day 6, media was replaced by “Day 6-SP34” medium, until day 8. In some experiments where indicated, to obtain a higher yield of HSC-like cells, EBs were kept until day 10: in this case, EBs were plated onto Matrigel (8 μg/cm2, Corning)-coated dishes on day 8 and kept until day 10. Media was changed every day, except on days 5 and 7. On day 8 or 10 (as indicated), EBs were singularized with 5-6 rounds of 5-minute incubations with TryPLE Express (Thermo Fisher Scientific). […]

HSC-like cells = assay: HSC-like cell subculture with metabolic regulators, flow cytometry; format: cell-based, human; conditions: day 3, 2-DG 1 mM
Excerpt: The RB9-CB1 human iPSC line (Woods, N.-B. et al. Brief report: efficient generation of hematopoietic precursors and progenitors from human pluripotent stem cell lines. Stem Cells 29, 1158-1164 (2011)) was co-cultured with mouse embryonic fibroblasts (MEFs, Millipore), passaged every six days and processed to form embryoid bodies (EBs) as described previously (Guibentif, C. et al. Single-Cell Analysis Identifies Distinct Stages of Human Endothelial to-Hematopoietic Transition. Cell Reports 19, 10-19 (2017)). The differentiation protocol used in this study was previously described (Ditadi, A. & Sturgeon, C. M. Directed differentiation of definitive hemogenic endothelium and hematopoietic progenitors from human pluripotent stem cells. Methods 101, 65-72 (2016)), however, small modifications were made to induce both primitive and definitive hematopoiesis, as indicated below and in FIG. 6, a. Newly-formed EBs were first kept in SFD medium supplemented with 1 ng/ml Activin A (on days 0-2) and 3 μM CHIR99021 (on day 2 only). At day 3, media was switched to “Day 3-SP34” medium supplemented with 1 ng/ml Activin A (on day 3 only) and 3 μM CHIR99021 (on day 3 only) until day 6. On day 6, media was replaced by “Day 6-SP34” medium, until day 8. […]

[2] = day 6, single agent vs control (1-AA 4 mM, TCP 300 nM, C646 10 μM, CP 5 μM, shRNAs vs shScr)

`CC(C)CCC[C@@H](C)[C@H]1CC[C@H]2[C@@H]3CC=C4C[C@@H](O)CC[C@]4(C)[C@H]3CC[C@]12C` [cholesterol] was tested. Which “degranulated NK cells (CD3-CD56+CD16+CD107+ cells)” value (iPSC-CD34+) did it give?
Its value is 7.47 % of the population.

And the “increase in degranulated NK cells vs untreated control” value (iPSC-CD34+)?
Its value is “more than 2 fold”.

And the basal degranulation (iPSC-CD34+)?
Its basal degranulation is “higher than ctrl”.

What about the “level of degranulated NK cells when exposed to K562 cells” value (iPSC-CD34+) of the same compound?
The value was “further increased; also recorded: except for Cholesterol treated cells”.

How did the “HE-derived CD43+CD45+ (CD45+) cell population” value (“HE-derived CD43+CD45+” below) (HE cells; [2]) turn out when `CC1=NN(c2ccc(C(=O)O)cc2)C(=O)/C1=C/C1=CC=C(c2cc(C)c(C)cc2[NH+]([O-])O)C1` (stereo not shown) [C646] was run?
The value was “did not have an effect”.

For `N#CC(C#N)=NNc1ccc(OC(F)(F)F)cc1` [FCCP, Carbonyl cyanide 4-(trifluoromethoxy)phenylhydrazone], which TMRE signal [1] is on record?
The TMRE signal was “abrogated the TMRE signal”.

With `COCCNC(=O)Nc1ccc2nc(-c3cccs3)c(-c3cccs3)nc2c1` [ACSS2i] as the compound, how does the “DCA effect on CD43+CD45+ cells under co-treatment” value (HE cells; day 6 of HE subculture, ACSS2i 5 μM with DCA 3 mM) read?
The value was “did not perturb the DCA effect”.

For `CC(C)c1c(C(=O)Nc2ccccc2)c(-c2ccccc2)c(-c2ccc(F)cc2)n1CC[C@@H](O)C[C@@H](O)CC(=O)O` [atorvastatin], which “DCA effect on CD43+CD45+ cells under co-treatment” value (HE cells; day 3, Ato 0.5 μM with DCA 3 mM) is on record?
Its value is “abrogated the effect of DCA”.

Which “proliferation rate (CellTrace Violet)” value (EHT cells) does the source give for `O=CC[C@@H](O)[C@H](O)[C@H](O)CO` [2-DG, 2-Deoxy-D-glucose] here?
Its value is “significantly reduced”.

And the “proliferation rate (CellTrace Violet)” value (HSC-like cells)?
Its value is “significantly reduced”.

What about the “CD43+GPA+ cell population” value (HE cells; day 3, 2-DG 1 mM) of the same compound?
Its value is “less than 50 % of the control”.

What about the “CD43+ cell output from HE cells” value (HE cells; day 3 of subculture, 2-DG 1 mM) of the same compound?
Its value is “significantly reduced”.

And the “CD43+CD45+ cell population” value (HE cells; day 6, 2-DG 1 mM)?
Its value is “less than 50 % of the control”.

With `O=C(c1c2ccccc2cc2ccccc12)N1CCC(N2CCCC(C(=O)N3CCOCC3)C2)CC1` (stereo not shown) [CP] as the compound, how does the “degranulated NK cells (CD3-CD56+CD16+CD107+ cells)” value (iPSC-CD34+) read?
Its value is 18.3 % of the population.

What about the “increase in degranulated NK cells vs untreated control” value (iPSC-CD34+) of the same compound?
Its value is “more than 5 fold”.

What about the basal degranulation (iPSC-CD34+) of the same compound?
The basal degranulation was “higher than ctrl”.

What about the “level of degranulated NK cells when exposed to K562 cells” value (iPSC-CD34+) of the same compound?
Its value is “further increased; also recorded: increased degranulation”.

What about the “HE-derived CD43+CD45+” value (HE cells; [2]) of the same compound?
The value was “had the same effect as DCA”.

With `CC(/C=C/C(=O)NO)=C\[C@@H](C)C(=O)c1ccc(N(C)C)cc1` [TSA, Trichostatin A] as the compound, how does the “emergence of CD43+ hematopoietic cells” value (HE cells; day 3, TSA 60 nM) read?
The value was “impaired the emergence”.

For `N[C@@H]1C[C@H]1c1ccccc1` (racemic) [TCP, Tranylcypromine], which “HE-derived CD43+CD45+” value (HE cells) is on record?
The value was “more”.

What about the “increase in CD43+GPA+ cell frequency following UK5099 treatment when LSD1 is blocked or downregulated” value (HE cells) of the same compound?
The value was “could not detect an increase”.

What about the “myeloid differentiation (CD43+CD45+CD33+CD11b+)” value (HE cells) of the same compound?
The value was “specifically increased myeloid differentiation”.
